Reference: ChEMBL document CHEMBL4007467, “Effects of 6-paradol, an unsaturated ketone from gingers, on cytochrome P450-mediated drug metabolism” (Bioorg Med Chem Lett, 2017)

Tests used:
Assay type in all cases: ADME
CYP1A2 = molecular target: T1, CYP1A2 (Homo sapiens, UniProt P05177); assay: Inhibition of CYP1A2 in human liver microsomes assessed as enzyme-mediated metabolite formation at 3 uM using phenacetin as substrate incubated for 5 mins followed by NADPH addition measured after 30 mins by LC-MS/MS analysis relative to control; parameters: scale not given: the % may be the effect or the level left; conditions: probe phenacetin, read-out: Activity
T1 sequence (P05177 whole entry): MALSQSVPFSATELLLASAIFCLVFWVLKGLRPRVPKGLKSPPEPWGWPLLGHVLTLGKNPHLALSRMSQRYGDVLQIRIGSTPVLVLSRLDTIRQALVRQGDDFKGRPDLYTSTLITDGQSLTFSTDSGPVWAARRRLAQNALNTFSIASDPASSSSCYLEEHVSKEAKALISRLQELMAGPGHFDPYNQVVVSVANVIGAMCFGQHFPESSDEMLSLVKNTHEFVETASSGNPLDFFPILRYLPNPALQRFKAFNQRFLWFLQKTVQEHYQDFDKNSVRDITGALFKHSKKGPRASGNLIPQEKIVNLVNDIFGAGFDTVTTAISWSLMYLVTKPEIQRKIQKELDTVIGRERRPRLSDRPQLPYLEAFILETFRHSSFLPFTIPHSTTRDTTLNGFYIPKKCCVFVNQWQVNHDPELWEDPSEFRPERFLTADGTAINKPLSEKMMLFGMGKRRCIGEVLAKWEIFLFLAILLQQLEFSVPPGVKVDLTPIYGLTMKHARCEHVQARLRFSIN

Cytochrome P450 2A6 = molecular target: T2, Cytochrome P450 2A6 (Homo sapiens, UniProt P11509); assay: Inhibition of CYP2A6 in human liver microsomes assessed as enzyme-mediated metabolite formation using coumarin as substrate incubated for 5 mins followed by NADPH addition measured after 30 mins by LC-MS/MS analysis
T2 sequence (P11509 whole entry): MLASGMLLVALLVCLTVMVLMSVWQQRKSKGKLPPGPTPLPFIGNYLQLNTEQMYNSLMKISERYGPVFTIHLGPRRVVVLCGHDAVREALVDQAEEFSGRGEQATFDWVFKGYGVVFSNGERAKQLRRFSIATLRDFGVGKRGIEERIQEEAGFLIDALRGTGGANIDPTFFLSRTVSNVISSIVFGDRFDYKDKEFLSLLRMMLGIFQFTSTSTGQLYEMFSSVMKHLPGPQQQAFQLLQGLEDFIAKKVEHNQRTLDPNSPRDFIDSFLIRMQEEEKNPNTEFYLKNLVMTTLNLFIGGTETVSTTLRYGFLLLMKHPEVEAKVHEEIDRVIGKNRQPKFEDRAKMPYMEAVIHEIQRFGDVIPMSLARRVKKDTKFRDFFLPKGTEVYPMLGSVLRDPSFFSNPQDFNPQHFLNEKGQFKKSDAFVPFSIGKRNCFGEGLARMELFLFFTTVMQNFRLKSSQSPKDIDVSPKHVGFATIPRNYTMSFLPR

CYP2D6 = CYP2D6 (Homo sapiens, UniProt P10635); assay: Inhibition of CYP2D6 in human liver microsomes assessed as enzyme-mediated metabolite formation at 0.3 uM using dextromethorphan as substrate incubated for 5 mins followed by NADPH addition measured after 30 mins by LC-MS/MS analysis relative to control; parameters: scale not given: the % may be the effect or the level left; conditions: probe dextromethorphan, read-out: Activity
Chain of CYP2D6 (P10635 whole entry): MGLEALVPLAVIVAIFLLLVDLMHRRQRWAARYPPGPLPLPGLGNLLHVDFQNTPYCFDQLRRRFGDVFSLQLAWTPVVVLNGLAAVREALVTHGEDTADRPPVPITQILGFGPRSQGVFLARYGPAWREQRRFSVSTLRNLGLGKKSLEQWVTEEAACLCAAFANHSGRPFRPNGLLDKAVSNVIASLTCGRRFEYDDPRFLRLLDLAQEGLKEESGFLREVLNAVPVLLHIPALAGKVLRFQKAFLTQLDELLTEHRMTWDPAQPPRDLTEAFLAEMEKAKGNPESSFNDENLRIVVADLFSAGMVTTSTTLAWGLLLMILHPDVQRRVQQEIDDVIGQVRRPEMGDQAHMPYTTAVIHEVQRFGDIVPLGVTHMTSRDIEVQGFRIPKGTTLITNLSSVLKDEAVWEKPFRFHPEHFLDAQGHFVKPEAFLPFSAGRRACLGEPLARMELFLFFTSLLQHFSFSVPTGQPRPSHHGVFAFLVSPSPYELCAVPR

Compound: CCCCCCCC(=O)CCc1ccc(O)c(OC)c1
- activity at 0.5 h, 3 µM (CYP1A2): 72%
- IC50 (Cytochrome P450 2A6): > 30 µM
- activity at 0.5 h, 0.3 µM (CYP2D6): 76%
